Where two headings read alike, the source gives them in different places.
What was measured:
[1] = at 25° C.; cited from earlier work
[2] = system: LM36R human melanoma cells; assay: LM36R vemurafenib-resistant melanoma xenograft tumor growth in nude mice; type: in vivo, athymic Nu/Nu nude male mice; conditions: 5 mg of drug/kg per injection, bi-weekly tail vein injections, 4 weeks, n=5 per group; p-value 0.048 at week 4
Procedure: Nude male mice were inoculated with LM36R (5.0×10^5 cells), a human cell line of melanoma that is resistant to vemurafenib, and then treated with HANPs over the course of four weeks.
Vemurafenib-resistant LM36R human melanoma cells were inoculated (5.0×10^5 cells/mouse) into the right flank of athymic Nu/Nu nude male mice (Crl:NU-Foxn1^nu strain code 088)) n=5 per group, and progression of tumor was recorded using the volume model of length×(width)×0.52. Mice were split into four groups consisting of a control (empty HANP), free Tris DBA-Pd, HANP with Tris DBA-Pd, and HANP with Tris DBA-Pd and aIGF1R antibody. Free Tris DBA-Pd was first dissolved in DMSO and then mixed with Kolliphor EL™. At last, the mixture was diluted by H2O before injection at concentration of 1 mg/mL of DBA. The ratio of DMSO, Kolliphor EL™ and H2O was controlled as 1:2:7 (v/v). The treatments were administered through bi-weekly tail vein injections over the course of 4 weeks (5 mg of drug/kg per injection). Tumor samples were analyzed for CD44 (hyaluronate receptor) expression by immunohistochemistry.

melanoma = conditions: Clin Cancer Res. 2008, 14:5743-5748; cited from earlier work
[3] = general statement, water, cited from earlier work
[4] = Dispersion of free vs HANP-loaded Tris DBA-Pd in water, FBS and cell culture media; type: physicochemical
Procedure: Hyaluronic Acid (HA)-5β-cholanic acid conjugate was synthesized by linking the carboxyl group of HA with the amino group on 5β-cholanic acid in the presence of EDC and NHS (FIG. 1). Hyaluronic Acid nanoparticles/Tris-DBA palladium were prepared. Water-insoluble Tris DBA-Pd was physically encapsulated into the hydrophobic cavities by a high-pressure homogenizer. This allowed for the dispersion of Tris DBA-Pd under physiological conditions. After freeze-drying, 40 mg of HANPs were dispersed in 8 mL of distilled water and 10 mg of Tris DBA-Pd was dissolved in 2 mL dimethyl sulfoxide (DMSO). The Tris DBA-Pd solution was slowly added into the HANP in high pressure homogenizer and homogenized for 5 min. Finally, the resulting mixture was dialyzed for 4 hours against an excess amount of distilled water to remove unloaded drugs and organic solvent, followed by lyophilization.
To verify the encapsulation of Tris DBA-Pd, the size changes were compared before and after loading.

LM36R xenograft tumor = assay: Gene array / whole-transcriptome expression analysis of treated tumors; type: in vivo, human
Procedure: Gene array was performed on all tumors. […] By varying the delivery process of a single drug, one might be able to prevent resistance.
RNA Extraction and QC: RNA was extracted using the Qiagen miRNEasy™ kit with on column DNAse treatment. Tissue was lysed and homogenized in Qiazol™ with a rotor-stator probe homogenizer for 40 seconds or until fully disrupted (1 ml Qiazol™ per 100 mg of tissue). RNA was eluted in 50 ul nuclease free water. One microliter was used to determine OD (optical density) values on a Nanodrop 1000. One microliter was used to assess sample profiles on the Agilent 2100 using the RNA 6000 Nano assay. Total RNA (250 ng) was amplified and labeled using the ThermoFisher Scientific Illuina™ TotalPrep™ RNA Amplification kit. Labeled cRNA was hybridized to Illumina HT12™ bead array. Image acquisition and data extraction were performed.

[5] = target: N-myristoyltransferase 1 (NMT1) (Homo sapiens, UniProt P30419); conditions: reported in the literature; cited from earlier work
N-myristoyltransferase 1 (NMT1), sequence (P30419 whole entry, species assumed): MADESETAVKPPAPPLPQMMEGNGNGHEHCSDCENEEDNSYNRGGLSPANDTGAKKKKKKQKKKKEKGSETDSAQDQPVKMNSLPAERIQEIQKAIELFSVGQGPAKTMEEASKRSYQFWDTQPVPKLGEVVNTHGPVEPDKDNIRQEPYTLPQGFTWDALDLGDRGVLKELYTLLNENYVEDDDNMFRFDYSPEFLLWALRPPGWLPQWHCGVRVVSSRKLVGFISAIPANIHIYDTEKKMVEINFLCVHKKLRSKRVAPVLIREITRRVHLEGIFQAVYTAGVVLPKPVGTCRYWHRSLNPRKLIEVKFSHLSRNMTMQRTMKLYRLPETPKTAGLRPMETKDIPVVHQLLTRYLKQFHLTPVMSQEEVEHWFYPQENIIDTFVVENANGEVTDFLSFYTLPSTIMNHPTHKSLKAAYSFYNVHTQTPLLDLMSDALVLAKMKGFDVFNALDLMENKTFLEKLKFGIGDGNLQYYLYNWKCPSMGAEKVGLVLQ

IGF1R = assay: Immunohistochemistry of tumor xenografts for IGF1R; type: in vivo, human; conditions: IHC, LM36R xenograft
Procedure: Immunohistochemistry was performed to qualitatively assess expression of target genes. […] To assess the impact of our treatments on IGF1R expression, IHC was used to stain the tumor xenografts with antibodies against IGF1R.

CCCCCCCC [octane]
percent solubility in water by weight [1]: 0.63×10^−4 % w/w

O=C(/C=C/c1ccccc1)/C=C/c1ccccc1.O=C(/C=C/c1ccccc1)/C=C/c1ccccc1.O=C(/C=C/c1ccccc1)/C=C/c1ccccc1.[Pd].[Pd] [free Tris DBA-Pd, Tris(dibenzylideneacetone)dipalladium]
inhibition of growth of LM36R tumors [2]: showed efficacy
effect on melanoma growth (melanoma): effective against melanoma growth
solubility ([3]; listed as Tris (dibenzylideneacetone) dipalladium): poor solubility
solubility ([3]; listed as Tris DBA-Pd): Water-insoluble
behaviour in water, FBS, and cell culture media (precipitation / dispersion) [4]: immediately precipitated
SCG2 (secretogranin 2) expression (LM36R xenograft tumor): downregulated
activity against NMT1 [5]: activity against the enzyme N-myristoyltransferase 1

Tris DBA-Pd HANPs coupled with anti-IGF1R antibodies: Tris DBA-Pd HANP with anti-IGF1R monoclonal antibodies (Dalotuzumab) conjugated onto the surface
intensity of IGF1R staining (IGF1R): decreased the intensity of IGF1R staining more so than the other groups

Reference: patent US12233087B2, “Palladium hyaluronic acid particles and methods of managing cancer or angiogenic conditions” (Emory University, priority 2018, dated 2025)
